# Molecular target: T1, human mGlu2 receptor (Homo sapiens, UniProt Q14416)
# T1 construct: expressed in transfected cells; host or cells: HEK293
# Assay: FLIPR intracellular Ca2+ assay, potentiation of glutamate response in HEK293 clone expressing mGlu2 receptor, rGLAST and Galpha16
# Assay type: cell-based
# Conditions: 1 μM glutamate added ten minutes after test compound, HEK293 cells with human mGlu2, rGLAST, Galpha16, read-out: EC50 values of potentiation effect to glutamate
# How it was run: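 HEK293 cells stably expressing human mGlu2, rat GLAST and Gα16 were loaded with 2 µM Fluo-4 AM and intracellular Ca2+ read by FLIPR. Compound added alone (agonism), then with submaximal glutamate (e.g. 1 µM; potentiation). Background-subtracted peaks normalized to 100 µM glutamate response; EC50 from four-parameter fit.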
# T1 sequence (Q14416 19-872): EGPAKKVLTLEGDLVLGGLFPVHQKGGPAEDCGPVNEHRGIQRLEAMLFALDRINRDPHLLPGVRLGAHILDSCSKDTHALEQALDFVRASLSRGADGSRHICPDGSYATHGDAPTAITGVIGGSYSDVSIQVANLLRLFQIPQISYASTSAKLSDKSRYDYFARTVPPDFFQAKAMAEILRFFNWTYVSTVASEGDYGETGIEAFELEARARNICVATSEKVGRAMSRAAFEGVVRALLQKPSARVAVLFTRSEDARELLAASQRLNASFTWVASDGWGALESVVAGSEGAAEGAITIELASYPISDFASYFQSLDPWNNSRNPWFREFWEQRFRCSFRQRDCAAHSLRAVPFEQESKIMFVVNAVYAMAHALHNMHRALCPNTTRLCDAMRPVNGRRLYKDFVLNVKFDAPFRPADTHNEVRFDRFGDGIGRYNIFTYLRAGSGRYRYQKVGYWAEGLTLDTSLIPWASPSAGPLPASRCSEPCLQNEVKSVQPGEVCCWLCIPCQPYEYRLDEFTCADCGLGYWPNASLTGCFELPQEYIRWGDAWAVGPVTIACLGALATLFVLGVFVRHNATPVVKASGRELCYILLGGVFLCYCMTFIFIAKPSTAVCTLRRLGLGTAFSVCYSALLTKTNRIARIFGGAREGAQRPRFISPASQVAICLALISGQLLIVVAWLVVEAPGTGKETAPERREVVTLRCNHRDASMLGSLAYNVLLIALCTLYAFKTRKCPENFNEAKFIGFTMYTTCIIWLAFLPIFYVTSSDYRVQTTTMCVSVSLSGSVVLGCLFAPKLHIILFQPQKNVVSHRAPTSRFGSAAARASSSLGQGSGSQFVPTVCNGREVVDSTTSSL
row,EC50,SMILES
1,1000 to 10000 nM,"CCC(CC)Oc1cccc(N(Cc2c[nH]nc2-c2ccc(C(F)(F)F)cc2)S(=O)(=O)CC(F)(F)F)c1 [Example 454, 2,2,2-Trifluoro-ethanesulfonic acid [3-(1-ethyl-propoxy)-phenyl]-[3-(4-trifluoromethyl-phenyl)-1H-pyrazol-4-ylmethyl]-amide]"
2,1000 to 10000 nM,"CC(C)(C)c1n[nH]cc1CN(c1cccc(OC2CCCC2)c1)S(=O)(=O)CC(F)(F)F [Example 458, 2,2,2-Trifluoro-ethanesulfonic acid (3-tert-butyl-1H-pyrazol-4-ylmethyl)-(3-cyclopentyloxy-phenyl)-amide]"
3,1000 to 10000 nM,"CCCC(=O)c1ccc(NCc2c[nH]nc2C)cc1 [Example 475, 1-{4-[(3-Methyl-1H-pyrazol-4-ylmethyl)-amino]-phenyl}-butan-1-one]"
4,1000 to 10000 nM,"CCCC(=O)c1ccc(NCc2c[nH]nc2CCC)cc1 [Example 476, 1-{4-[(3-Propyl-1H-pyrazol-4-ylmethyl)-amino]-phenyl}-butan-1-one]"
5,1000 to 10000 nM,"CCCC(=O)c1ccc(NCc2c[nH]nc2C(C)C)cc1 [Example 477, 1-{4-[(3-Isopropyl-1H-pyrazol-4-ylmethyl)-amino]-phenyl}-butan-1-one]"
6,1000 to 10000 nM,"CCCC(=O)c1ccc(NCc2c[nH]nc2CC)cc1 [Example 478, 1-{4-[(3-Ethyl-1H-pyrazol-4-ylmethyl)-amino]-phenyl}-butan-1-one]"
7,1000 to 10000 nM,"CC(=O)c1ccc(OCc2c[nH]nc2-c2ccc(C(F)(F)F)cc2)cc1 [Example 483, 1-{4-[3-(4-Trifluoromethyl-phenyl)-1H-pyrazol-4-ylmethoxy]-phenyl}-ethanone]"
8,1000 to 10000 nM,"CC(=O)c1ccc(OCc2c[nH]nc2-c2ccc(C(F)(F)F)cc2)cc1F [Example 485, 1-{2-Fluoro-4-[3-(4-trifluoromethyl-phenyl)-1H-pyrazol-4-ylmethoxy]-phenyl}-ethanone]"
9,1000 to 10000 nM,"CC(=O)c1ccc(OCc2c[nH]nc2-c2ccc(C(F)(F)F)cc2)cc1C [Example 487, 1-{2-Methyl-4-[3-(4-trifluoromethyl-phenyl)-1H-pyrazol-4-ylmethoxy]-phenyl}-ethanone]"
10,1000 to 10000 nM,"CC(=O)c1ccc(OCc2c[nH]nc2-c2ccc(C(F)(F)F)cc2)c(C)c1 [Example 488, 1-{3-Methyl-4-[3-(4-trifluoromethyl-phenyl)-1H-pyrazol-4-ylmethoxy]-phenyl}-ethanone]"
11,< 1000 nM,"CCC(=O)c1ccc(OCc2c[nH]nc2-c2ccc(C(F)(F)F)cc2)cc1 [Example 489, 1-{4-[3-(4-Trifluoromethyl-phenyl)-1H-pyrazol-4-ylmethoxy]-phenyl}-propan-1-one]"
12,< 1000 nM,"CCCCC(=O)c1ccc(OCc2c[nH]nc2-c2ccc(C(F)(F)F)cc2)cc1 [Example 490, 1-{4-[3-(4-Trifluoromethyl-phenyl)-1H-pyrazol-4-ylmethoxy]-phenyl}-pentan-1-one]"
13,< 1000 nM,"CCCCCC(=O)c1ccc(OCc2c[nH]nc2-c2ccc(C(F)(F)F)cc2)cc1 [Example 491, 1-{4-[3-(4-Trifluoromethyl-phenyl)-1H-pyrazol-4-ylmethoxy]-phenyl}-hexan-1-one]"
14,1000 to 10000 nM,"CCCC(=O)c1ccc(SCc2c[nH]nc2-c2ccc(C(F)(F)F)cc2)cc1 [Example 492, 1-{4-[3-(4-Trifluoromethyl-phenyl)-1H-pyrazol-4-ylmethylsulfanyl]-phenyl}-butan-1-one]"
15,< 1000 nM,"CCCC(=O)c1ccc(OCc2c[nH]nc2-c2ccc(C(F)(F)F)cc2)cc1 [Example 494, 1-{4-[3-(4-Trifluoromethyl-phenyl)-1H-pyrazol-4-ylmethoxy]-phenyl}-butan-1-one]"
16,< 1000 nM,"CCCC(=O)c1ccc(OCc2c[nH]nc2-c2ccc(F)cc2)cc1 [Example 495, 1-{4-[3-(4-Fluorophenyl)-1H-pyrazol-4-ylmethoxy]-phenyl}-butan-1-one]"
17,< 1000 nM,"CCCC(=O)c1ccc(OCc2c[nH]nc2-c2ccc(Cl)cc2)cc1 [Example 496, 1-{4-[3-(4-Chloro-phenyl)-1H-pyrazol-4-ylmethoxy]-phenyl}-butan-1-one]"
18,< 1000 nM,"CCCC(=O)c1ccc(OCc2c[nH]nc2-c2cccc(F)c2)cc1 [Example 497, 1-{4-[3-(3-Fluorophenyl)-1H-pyrazol-4-ylmethoxy]-phenyl}-butan-1-one]"
19,< 1000 nM,"CCCC(=O)c1ccc(OCc2c[nH]nc2-c2cccc(C(F)(F)F)c2)cc1 [Example 498, 1-{4-[3-(3-Trifluoromethyl-phenyl)-1H-pyrazol-4-ylmethoxy]-phenyl}-butan-1-one]"
20,< 1000 nM,"CCCC(=O)c1ccc(OCc2c[nH]nc2-c2ccccc2)cc1 [Example 499, 1-[4-(3-Phenyl-1H-pyrazol-4-ylmethoxy)-phenyl]-butan-1-one]"
21,1000 to 10000 nM,"CC(=O)c1ccc(NCc2c[nH]nc2-c2ccc(C(F)(F)F)cc2)cc1 [Example 501, 1-(4-{[3-(4-Trifluoromethyl-phenyl)-1H-pyrazol-4-ylmethyl]-amino}-phenyl)-ethanone]"
22,1000 to 10000 nM,"CCCC(=O)c1cccc(NCc2c[nH]nc2-c2ccc(C(F)(F)F)cc2)c1 [Example 503, 1-(3-{[3-(4-Trifluoromethyl-phenyl)-1H-pyrazol-4-ylmethyl]-amino}-phenyl)-butan-1-one]"
23,1000 to 10000 nM,"O=C(c1ccccc1)c1ccc(NCc2c[nH]nc2-c2ccc(C(F)(F)F)cc2)cc1 [Example 504, Phenyl-(4-{[3-(4-trifluoromethyl-phenyl)-1H-pyrazol-4-ylmethyl]-amino}-phenyl)-methanone]"
24,1000 to 10000 nM,"O=C(c1ccc(NCc2c[nH]nc2-c2ccc(C(F)(F)F)cc2)cc1)C(F)(F)F [Example 506, 2,2,2-Trifluoro-1-(4-{[3-(4-trifluoromethyl-phenyl)-1H-pyrazol-4-ylmethyl]-amino}-phenyl)-ethanone]"
25,1000 to 10000 nM,"CC(=O)c1ccc2c(c1)CCN2Cc1c[nH]nc1-c1ccc(C(F)(F)F)cc1 [Example 507, 1-{1-[3-(4-Trifluoromethyl-phenyl)-1H-pyrazol-4-ylmethyl]2,3-dihydro1H-indol-5-yl}-ethanone]"
26,< 1000 nM,"CCCC(=O)c1ccc(NCc2c[nH]nc2-c2ccc(F)cc2)cc1 [Example 508, 1-(4-{[3-(4-Fluorophenyl)-1H-pyrazol-4-ylmethyl]-amino}-phenyl)-butan-1-one]"
27,< 1000 nM,"CCCC(=O)c1ccc(NCc2c[nH]nc2-c2cccc(Cl)c2)cc1 [Example 509, 1-(4-{[3-(3-Chloro-phenyl)-1H-pyrazol-4-ylmethyl]-amino}-phenyl)-butan-1-one]"

row,SMILES,EC50
1,"CCCC(C)Oc1cccc(N(Cc2c[nH]nc2-c2ccc(C(F)(F)F)cc2)S(=O)(=O)CC(F)(F)F)c1 (stereo not drawn) [Example 455, 2,2,2-Trifluoro-ethanesulfonic acid [3-(1-methyl-butoxy)-phenyl]-[3-(4-trifluoromethyl-phenyl)-1H-pyrazol-4-ylmethyl]-amide]",1000 to 10000 nM
2,"CCC(C)Oc1cccc(N(Cc2c[nH]nc2-c2ccc(C(F)(F)F)cc2)S(=O)(=O)CC(F)(F)F)c1 (stereo not drawn) [Example 456, 2,2,2-Trifluoro-ethanesulfonic acid (3-sec-butoxy-phenyl)-[3-(4-trifluoromethyl-phenyl)-1H-pyrazol-4-ylmethyl]-amide]",1000 to 10000 nM
3,"CCC(C)COc1cccc(N(Cc2c[nH]nc2-c2ccc(C(F)(F)F)cc2)S(=O)(=O)CC(F)(F)F)c1 (stereo not drawn) [Example 457, 2,2,2-Trifluoro-ethanesulfonic acid [3-(2-methyl-butoxy)-phenyl]-[3-(4-trifluoromethyl-phenyl)-1H-pyrazol-4-ylmethyl]-amide]",1000 to 10000 nM

# From patent publication US9242933B2 (AbbVie Deutschland GmbH & Co. KG, priority 2007, dated 2016)
